Source: US20090169573A1, “T-Cell Stimulatory Peptides From The Melanoma-Associated Chondroitin Sulfate Proteoglycan And Their Use” (priority 2004, published 2009)

Legend:
[1] = tested on: CD4+ T-cell clone 25; format: cell-based, human; conditions: for recognition by clone 25 of overlapping 16-mer peptides: IFN-γ ELISA
[2] = tested on: HLA-DR11; experiment: HLA restriction of clone 25: blocking antibodies and EBV-B cell lines with different HLA class II molecules; format: cell-based, human; conditions: IFN-γ production
Experimental: FIG. 6: Autologous EBV-B cells (1.5×10^4) pulsed with 1 μM of the 16-mer MCSP peptide […] (SEQ ID NO:9) were used as stimulator cells in the presence of different blocking antibodies (anti-DR, anti-DQ or anti-DP). Also a control with no antibody (no Ab) was set up. All antibodies were used at a final concentration of 5 μg/ml each.
FIG. 7: 1.5×10^4 cells of several EBV-B cell lines (LP2-, LB1981-, R12-, PV6-, AC 42- and 4800-EBV) with different HLA class II molecules (HLA-DR11 positive or HLA-DR11 negative) were pulsed/loaded for 1 h with MCSP peptide […] (SEQ ID NO:9) (1 μM, white bar) and tested for recognition by the CD4^+ T cell clone. As control, the cells were pulsed in the absence of protein (black spotted bar).
(§1) 8. Determination of HLA restriction element utilized by MCSP-specific CD4^+ T-cell clone 25 and 3: To analyze the HLA restriction of CD4^+ T-cell clone 25 and 3, three monoclonal antibodies directed against anti-DR (L243; BD Biosciences, San Jose, USA), anti-DQ (CSPVL3; Immunotech) or anti-DP (B7/21; BD Biosciences, San Jose, USA) were used to test which one inhibited the recognition of antigen-presenting cells by the clone. First EBV-B cells (1.5×10^4 per round-bottomed microtiter plate well) were incubated for 1 h at 37° C., 8% CO2 in the presence of the peptide (SEQ ID NO:9 for clone 25, SEQ ID NO:48 for clone 3). The antibodies were added at a concentration of 5 ng/ml. The CD4^+ T-cell clone 25 or 3 was then added at 4×10^3 per well.
9. Determination of HLA-DR restriction element utilized by MCSP-specific CD4^+ T-cell clone 25: It was determined that cytokine secretion by the CD4^+ T-cell clone 25 occurred in response to EBV-B cells pulsed/loaded with MCSP-derived peptides restricted to HLA-DR. To further define the HLA-restriction element utilized by clone 25, additional EBV-B cell lines were used for peptide presentation as described above. In particular LP2-, LB1981-, R12-, PV6-, AC 42- and 4800-EBV which have with different HLA class II molecules (HLA-DR11 positive or HLA-DR11 negative) were used. They were pulsed/loaded for 1 h with 1 μM MCSP peptide […] […]

[3] = tested on: CD4+ T-cell clone 3; experiment: IFN-γ production of CD4+ T-cell clone 3 on peptide-pulsed autologous EBV-B cells (ELISA); format: cell-based, human
[4] = tested on: CD4+ T-cells; experiment: CD4+ T-cell induction with peptide-loaded dendritic cells, IFN-γ ELISA of microcultures; format: cell-based, human
[5] = tested on: CD8+ T-cells; experiment: CD8+ T-cell induction with TAT-MCSP-peptide-loaded dendritic cells, IFN-γ ELISA of microcultures; conditions: donor 11325; long TAT-MCSP-peptide 10 μM; not with control peptide; FIG. 18
Experimental: After 3 weekly restimulations microcultures were tested for their IFN-γ production when stimulated with autologous EBV-B cells loaded with the TAT-MCSP peptide (SEQ ID NO:54) or a control peptide.
Aliquots of approximately 4,000 CD8^+ T-cells from each 96-well microculture were co-incubated with 15,000 stimulator cells and after 20 h the IFN-γ concentration in the supernatant was measured by ELISA. […] Bars represent standard deviations.
In order to isolate MCSP specific CD8^+ T cells, DCs were derived from monocytes of healthy donors using IL-4 and GM-CSF and loaded with the long TAT-MCSP-peptide of SEQ ID NO:54 at 20 μg/ml overnight so that potential T-cell epitopes within this peptide could be processed and presented by the cell. DCs were matured 6 h after peptide-loading by a cytokine cocktail (IL-1β, IL-6, TNF-α, PGE2) as described in Example 3 (b). Autologous CD8^+ T-cells were stimulated with protein-loaded mature DCs in 96-well-plates on the next day (FIG. 17). […]
Autologous EBV-B cells (5×10^5) were incubated for 18-20 h at 37° C. in the presence of 10 μg/ml or 20 μg/ml (compare Figure legends) of the MCSP peptide or an irrelevant control peptide as a negative control. […] After 18-20 h, supernatants were harvested and assessed for IFN-γ content using an ELISA assay with reagents from Medgenix Diagnostics-Biosource (Fleurus, Belgium). […]

[6] = tested on: HLA-DR 11; experiment: HLA restriction of clone 3: blocking antibodies and EBV-B cell lines with different HLA class II molecules; format: cell-based, human; conditions: peptide 5 μg/ml, IFN-γ production
Experimental: FIG. 14: Autologous EBV-B cells (15,000) pulsed with 16-mer MCSP peptide (aa 1281-1296 (SEQ ID NO:48), 5 μg/ml) were used as stimulator cells in the presence of different blocking antibodies. All antibodies were used at a final concentration of 5 μg/ml each.
FIG. 15: Several EBV-B cell lines with different HLA class II molecules were pulsed with peptide MCSP1281-1296 (SEQ ID NO:48; 5 μg/ml) and tested for recognition (at 15,000 cells per well) by the CD4^+ T cell clone (4,000 cells per well).
as §1

[7] = autologous EBV-B cells pulsed 1 μM, 1 h, FIG. 4

VGQDVSVLFRVTGALQ [SEQ ID NO:9]
efficiency of stimulation of clone 25 among overlapping 16-mer peptides [1, 7]: most efficiently
recognition by clone 25 of overlapping 16-mer peptides [1, 7]: recognized
peptide concentration found optimal to achieve CD4+ T-cell stimulation ([1]; titration experiments, clone 25): 2 µg/mL
presentation of peptide to clone 25 by EBV-B cell lines with different HLA class II typings ([2]; LP2-, LB1981-, R12-, PV6-, AC 42- and 4800-EBV pulsed 1 μM 1 h, FIG. 7): only those expressing HLA-DRB1*11 (PV6-, AC 42- and 4800-EBV) were able to present the peptide to clone 25
recognition by clone 25 of peptide-loaded autologous EBV-B cells in presence of anti-HLA-DR antibody ([2]; peptide 1 μM, FIG. 6): completely abolished
recognition by clone 25 of peptide-loaded autologous EBV-B cells in presence of antibodies against HLA-DP or HLA-DQ ([2]; peptide 1 μM, FIG. 6): no influence

GYLVMVSRGALA [SEQ ID NO:46]
recognition of truncated peptides by clone 3 ([3]; truncated peptides derived from SEQ ID NO:42, 5 μg/ml, IFN-γ ELISA, FIG. 13): shortest peptide efficiently recognized

ETNAVGQDVSVLFRVT [SEQ ID NO:8]
recognition by clone 25 of overlapping 16-mer peptides [1, 7]: recognized

LAQGSAMPILPANLSVETNAVGQDVSVLFRVTGALQFGELQK [SEQ ID NO:3]
number of microcultures with peptide-specific CD4+ T-cells generated ([4]; DCs loaded with the 42 mer overnight (50 μg/ml), matured by cytokine cocktail): 2
number of peptide-specific T-cell clones obtained ([4]; from microculture C2, limiting dilution): 3
IFN-γ production of clone C2/25 after stimulation with peptide-loaded autologous EBV-B-cells ([1]; 42 mer 5 μM overnight, not with EBV-B-cells with or without control peptide, FIG. 3): specific IFN-γ production

YARAAARQARAPPADIVFSVKSPPSAGYLVMVSRGALADEPP [SEQ ID NO:54]
number of microcultures with peptide-specific CD4+ T-cells generated ([4]; DCs loaded with long TAT-MCSP-peptide at 20 μg/ml overnight, donor 11325): 3
number of peptide-specific T-cell clones generated ([4]; from microculture F1, limiting dilution): 3
Interferon-γ production of clone F1/3 after stimulation with peptide-loaded autologous EBV-B-cells ([3]; long TAT-MCSP-peptide 10 μM overnight, not with EBV-B-cells with or without control peptide, FIG. 11): specific Interferon-γ production
IFN-γ production of CD8+ T-cells from microcultures after stimulation with peptide-loaded autologous EBV-B-cells [5]: specific IFN-γ production

PPSAGYLVMVSRGALA [SEQ ID NO:42]
efficiency of stimulation of clone 3 among overlapping peptides ([3]; autologous EBV-B cells pulsed 5 μg/ml, 1 h, FIG. 12): most efficiently
recognition by clone 3 of peptide-loaded autologous EBV-B cells in presence of anti-HLA-DR antibody ([6]; FIG. 14): abolished
recognition by clone 3 of peptide-loaded autologous EBV-B cells in presence of antibodies against HLA-DP or HLA-DQ ([6]; FIG. 14): no influence
presentation of peptide to clone 3 by EBV-B cell lines with different HLA class II typings ([6]; FIG. 15): only those expressing HLA-DR 11 were able to present the peptide to clone 3

YARAAARQARA [SEQ ID NO:53, TAT PDT variant peptide, reference compound]
recognition by clone 3 of overlapping peptides of the 42-mer ([3]; autologous EBV-B cells pulsed 5 μg/ml, 1 h, IFN-γ ELISA, FIG. 12): not
